Converted amounts (≈) assume the structure as drawn.
Experiments:
Assay type in all cases: cell-based
[1] = system: Zymoseptoria tritici; experiment: Fungicidal activity screen in amended agar, 96 well plates, Zymoseptoria tritici; settings: 1% potato dextrose agar, 10,000 spores/mL, 20, 2, 0.2 and 0.02 ppm, room temperature (18° C.), assessed after 7 days; for EC50: Zymoseptoria tritici, 168 h, read-out: Zymoseptoria (fungal growth vs DMSO controls, EC50 ranking)
Method: (§1) Compounds were screened in 96 well plates with 10 compounds per plate. Each compound was screened using agar amended to 20, 2, 0.2 and 0.02 ppm of the test material. Proline at 50 and 10 ppm and 0.2% DMSO were used respectively as positive and negative controls. Each test concentration and standard were tested twice on a plate.
(§2) Compounds were screened against the following three fungal pathogens—Botrytis cinerea, Alternaria alternata and Zymoseptoria tritici. The agar used in the test varied depending on the pathogen with Medium N used for B. cinerea and A. alternata and 1% potato dextrose agar for Z. tritici. For each pathogen sufficient spores were added to the appropriate agar to give 1,000 spores/mL agar of A. alternata, 5,000 spores/ml agar of B. cinerea and 10,000 spores/mL agar of Z. tritici.
(§3) A ×10 stock solution in 2% DMSO was produced for each dose i.e. 200, 20, 2 and 0.2 ppm, and 10 μl of this added to the appropriate wells on the plate. An equivalent amount of 2% DMSO and Proline stock at 500 and 100 ppm were added for the controls. To each well, 90 μl of the appropriate agar spore suspension was added to give the final well concentrations outlined in the first paragraph.
(§4) Plates were incubated at room temperature (18° C.) and assessed after: • a) 3 to 4 days A. alternata and B. cinerea • b) 7 days for Z. tritici
(§5) The amount of fungal growth in each well was compared to the DMSO controls and scored according to the following key: • A—EC50<2 ppm • B—2≤EC50<20 • C—EC50≥20 • D—No activity detected at the highest dose tested • NT—Not tested

[2] = system: Botrytis cinerea; experiment: Fungicidal activity screen in amended agar, 96 well plates, Botrytis cinerea; settings: Medium N agar, 5,000 spores/ml, 20, 2, 0.2 and 0.02 ppm, room temperature (18° C.), assessed after 3 to 4 days, read-out: Botrytis (fungal growth vs DMSO controls, EC50 ranking)
Method: as §1, §2, §3, §4, §5

[3] = system: Alternaria alternata; experiment: Fungicidal activity screen in amended agar, 96 well plates, Alternaria alternata; settings: Medium N agar, 1,000 spores/mL, 20, 2, 0.2 and 0.02 ppm, room temperature (18° C.), assessed after 3 to 4 days, read-out: Alternaria (fungal growth vs DMSO controls, EC50 ranking)
Method: as §1, §2, §3, §4, §5

| Compound | EC50 [1] [µg/mL] | EC50 [2] [µg/mL] | EC50 [3] [µg/mL] | Zymoseptoria (fungal growth vs DMSO controls, EC50 ranking) [1] |
| --- | --- | --- | --- | --- |
| COCCOc1ccccc1Oc1ccc2nc(-n3c(=S)oc4c(OC)ccnc4c3=O)sc2c1 [Example 37, 8-methoxy-3-(6-(2-(2-methoxyethoxy)phenoxy)benzo[d]thiazol-2-yl)-2-thioxo-2,3-dihydro-4H-pyrido[2,3-e][1,3]oxazin-4-one] | 2 to 20 (≈ 3.92 to 39.2 µM) |  |  |  |
| COc1ccnc2c(=O)n(-c3nc4ccc(OC5CCCC5)cc4s3)c(=S)oc12 [Example 23, 3-(6-(Cyclopentyloxy)benzo[d]thiazol-2-yl)-8-methoxy-2-thioxo-2,3-dihydro-4H-pyrido[2,3-e][1,3]oxazin-4-one] | < 2 | 2 to 20 (≈ 4.68 to 46.8 µM) | ≥ 20 |  |
| COc1ccnc2c(=O)n(-c3nc4ccc(OCC(C)C)cc4s3)c(=S)oc12 [Example 43, 3-(6-isobutoxybenzo[d]thiazol-2-yl)-8-methoxy-2-thioxo-2,3-dihydro-4H-pyrido[2,3-e][1,3]oxazin-4-one] | < 2 |  |  |  |
| COc1ccnc2c(=O)n(-c3nc4ccc(Oc5ccc(F)cc5Cl)cc4s3)c(=O)oc12 [Example 1, 3-(6-(2-Chloro-4-fluorophenoxy)benzo[d]thiazol-2-yl)-8-methoxy-2H-pyrido[2,3-e][1,3]oxazine-2,4(3H)-dione] | < 2 | 2 to 20 (≈ 4.24 to 42.4 µM) | 2 to 20 (≈ 4.24 to 42.4 µM) |  |
| COc1ccnc2c(=O)n(-c3nc4ccc(Oc5ccc(C(F)(F)F)cc5)cc4s3)c(=S)oc12 [Example 46, 8-methoxy-2-thioxo-3-(6-(4-(trifluoromethyl)phenoxy)benzo[d]thiazol-2-yl)-2,3-dihydro-4H-pyrido[2,3-e][1,3]oxazin-4-one] | < 2 |  |  |  |
| COc1ccnc2c(=O)n(-c3nc4ccc(Oc5ccccc5)cc4s3)c(=O)oc12 [Example 4, 8-Methoxy-3-(6-phenoxybenzo[d]thiazol-2-yl)-2H-pyrido[2,3-e][1,3]oxazine-2,4(3H)-dione] | < 2 | 2 to 20 (≈ 4.77 to 47.7 µM) | 2 to 20 (≈ 4.77 to 47.7 µM) |  |
| COc1ccnc2c(=O)n(-c3nc4ccc(Sc5ccccc5Cl)nc4s3)c(=S)oc12 [Example 38, 3-(5-((2-chlorophenyl)thio)thiazolo [5,4-b]pyridin-2-yl)-8-methoxy-2-thioxo-2,3-dihydro-4H-pyrido[2,3-e][1,3]oxazin-4-one] | < 2 | ≥ 20 | ≥ 20 |  |
| COc1ccnc2c(=O)n(-c3nc4ccc(C(=O)c5ccccc5)cc4s3)c(=S)oc12 [Example 19, 3-(6-Benzoylbenzo[d]thiazol-2-yl)-8-methoxy-2-thioxo-2,3-dihydro-4H-pyrido[2,3-e][1,3]oxazin-4-one] | 2 to 20 (≈ 4.47 to 44.7 µM) |  |  |  |
| COc1ccnc2c(=O)n(-c3nc4ccc(Sc5cccnc5Cl)cc4s3)c(=S)oc12 [Example 47, 3-(6-((2-chloropyridin-3-yl)thio)benzo[d]thiazol-2-yl)-8-methoxy-2-thioxo-2,3-dihydro-4H-pyrido[2,3-e][1,3]oxazin-4-one] | < 2 | ≥ 20 | ≥ 20 |  |
| COc1ccnc2c(=O)n(-c3nc4ccc(C(=O)OC(C)C)cc4s3)c(=S)oc12 [Example 15, Isopropyl 2-(8-methoxy-4-oxo-2-thioxo-2H-pyrido[2,3-e][1,3]oxazin-3(4H)-yl)benzo[d]thiazole-6-carboxylate] | < 2 |  |  |  |
| COc1ccccc1Sc1ccc2nc(-n3c(=S)oc4c(OC)ccnc4c3=O)sc2c1 [Example 45, 8-methoxy-3-(6-((2-methoxyphenyl)thio)benzo[d]thiazol-2-yl)-2-thioxo-2,3-dihydro-4H-pyrido[2,3-e][1,3] oxazin-4-one] | 2 to 20 (≈ 4.15 to 41.5 µM) |  |  |  |
| 3-(7-chloro-6-(2-chlorophenoxy) benzo[d]thiazol-2-yl)-8-methoxy-2- thioxo-2,3-dihydro-4H-pyrido[2,3- e][1,3]oxazin-4-one [Example 35] |  |  |  | A (EC50<2 ppm) |
| COc1ccnc2c(=O)n(-c3nc4cnc(Oc5ccc(F)cc5Cl)nc4s3)c(=S)oc12 [Example 14, 3-(5-(2-Chloro-4-fluorophenoxy)thiazolo[5,4-d]pyrimidin-2-yl)-8-methoxy-2-thioxo-2,3-dihydro-4H-pyrido[2,3-e][1,3]oxazin-4-one] | < 2 |  |  |  |
| COc1ccnc2c(=O)n(-c3nc4ccc(Oc5ccccc5C(F)(F)F)cc4s3)c(=S)oc12 [Example 20, 8-Methoxy-2-thioxo-3-(6-(2-(trifluoromethyl)phenoxy)benzo[d]thiazol-2-yl)-2,3-dihydro-4H-pyrido[2,3-e][1,3]oxazin-4-one] | < 2 | 2 to 20 (≈ 3.97 to 39.7 µM) | 2 to 20 (≈ 3.97 to 39.7 µM) |  |
| COc1ccccc1Oc1ccc2nc(-n3c(=S)oc4c(OC)ccnc4c3=O)sc2c1 [Example 30, 8-methoxy-3-(6-(2-methoxyphenoxy)benzo[d]thiazol-2-yl)-2-thioxo-2,3-dihydro-4H-pyrido[2,3-e][1,3]oxazin-4-one] | < 2 |  |  |  |
| COc1ccnc2c(=O)n(-c3nc4cc(-c5ccccc5Cl)c(Oc5ccc(F)cc5Cl)cc4s3)c(=S)oc12 [Example 12, 3-(6-(2-Chloro-4-fluorophenoxy)-5-(2-chlorophenyl)benzo[d]thiazol-2-yl)-8-methoxy-2-thioxo-2,3-dihydro-4H-pyrido[2,3-e][1,3]oxazin-4-one] | < 2 |  |  |  |
| COc1ccnc2c(=O)n(-c3nc4ccc(N(C)c5ccccc5Cl)cc4s3)c(=S)oc12 [Example 31, 3-(6-((2-chlorophenyl)(methyl)amino)benzo[d]thiazol-2-yl)-8-methoxy-2-thioxo-2,3-dihydro-4H-pyrido[2,3-e][1,3]oxazin-4-one] | < 2 |  |  |  |
| COc1ccnc2c(=O)n(-c3nc4ccc(N(C)c5cncc(Cl)c5)cc4s3)c(=S)oc12 [Example 33, 3-(6-((5-chloropyridin-3-yl)(methyl)amino)benzo[d]thiazol-2-yl)-8-methoxy-2-thioxo-2,3-dihydro-4H-pyrido[2,3-e][1,3]oxazin-4-one] | 2 to 20 (≈ 4.13 to 41.3 µM) |  |  |  |
| COc1ccnc2c(=O)n(-c3nc4ccc(Cc5ccccc5)cc4s3)c(=S)oc12 [Example 24, 3-(6-Benzylbenzo[d]thiazol-2-yl)-8-methoxy-2-thioxo-2,3-dihydro-4H-pyrido[2,3-e][1,3]oxazin-4-one] | 2 to 20 (≈ 4.61 to 46.1 µM) |  |  |  |
| COc1ccnc2c(=O)n(-c3nc4ccc(N(C)c5ccc(Cl)cc5)cc4s3)c(=S)oc12 [Example 32, 3-(6-((4-chlorophenyl)(methyl)amino)benzo[d]thiazol-2-yl)-8-methoxy-2-thioxo-2,3-dihydro-4H-pyrido[2,3-e][1,3]oxazin-4-one] | < 2 |  |  |  |
| COc1ccnc2c(=O)n(-c3nc4ccc(Oc5ccc(Cl)cc5)cc4s3)c(=S)oc12 [Example 25, 3-(6-(4-Chlorophenoxy)benzo[d]thiazol-2-yl)-8-methoxy-2-thioxo-2,3-dihydro-4H-pyrido[2,3-e][1,3]oxazin-4-one] | < 2 |  |  |  |
| COc1ccnc2c(=S)n(-c3nc4ccc(Oc5ccccc5Cl)cc4s3)c(=S)oc12 [Example 26, 3-(6-(2-Chlorophenoxy)benzo[d]thiazol-2-yl)-8-methoxy-2H-pyrido[2,3-e][1,3]oxazine-2,4(3H)-dithione] | < 2 |  |  |  |
| COc1ccnc2c(=O)n(-c3nc4c(-c5ccccc5)cc(Oc5ccc(F)cc5Cl)cc4s3)c(=S)oc12 [Example 13, 3-(6-(2-Chloro-4-fluorophenoxy)-4-phenylbenzo[d]thiazol-2-yl)-8-methoxy-2-thioxo-2,3-dihydro-4H-pyrido[2,3-e][1,3]oxazin-4-one] | < 2 |  |  |  |
| COc1ccnc2c(=O)n(-c3nc4ccc(Oc5ccccc5Cl)cc4s3)c(=S)oc12 [Example 18, 3-(6-(2-Chlorophenoxy)benzo[d]thiazol-2-yl)-8-methoxy-2-thioxo-2,3-dihydro-4H-pyrido[2,3-e][1,3]oxazin-4-one] | < 2 |  |  |  |
| COc1ccnc2c(=O)n(-c3nc4ccc(Oc5ccccc5OCC5CC5)cc4s3)c(=S)oc12 [Example 44, 3-(6-(2-(cyclopropylmethoxy)phenoxy)benzo[d]thiazol-2-yl)-8-methoxy-2-thioxo-2,3-dihydro-4H-pyrido[2,3-e][1,3]oxazin-4-one] | 2 to 20 (≈ 3.96 to 39.6 µM) |  |  |  |
| COc1ccnc2c(=O)n(-c3nc4ccc(N(C)c5ccc(F)cc5Cl)cc4s3)c(=S)oc12 [Example 16, 3-(6-((2-Chloro-4-fluorophenyl)(methyl)amino)benzo[d]thiazol-2-yl)-8-methoxy-2-thioxo-2,3-dihydro-4H-pyrido[2,3-e][1,3]oxazin-4-one] | < 2 |  |  |  |
| COc1ccnc2c(=O)n(-c3nc4ccc(Sc5ccccc5Cl)cc4s3)c(=S)oc12 [Example 34, 3-(6-((2-chlorophenyl)thio)benzo[d]thiazol-2-yl)-8-methoxy-2-thioxo-2,3-dihydro-4H-pyrido[2,3-e][1,3]oxazin-4-one] | < 2 |  |  |  |

Reference: US12415815B2, “Pyrido[2,3-e]oxazine derivatives as agricultural chemicals” (GLOBACHEM NV, priority 2020, dated 2025)
